Here are results for 1 compound from patent US20130095038A1, “PARTICLES, AND PHOTOACOUSTIC IMAGING CONTRAST AGENT AND SLN CONTRAST AGENT INCLUDING THE PARTICLES” (CANON KABUSHIKI KAISHA, priority 2011, published 2013).

This data set relates to mouse popliteal lymph nodes. In words: Evaluation of accumulation in SLN. Type of data set: in vivo. The procedure:
Migration to SLN was evaluated using mouse popliteal lymph nodes. A probe was administered to a mouse from the sole of the hindlimb, and accumulation in the popliteal lymph nodes was evaluated as a model of evaluation of accumulation in SLN. Ten microliters of a sample was subcutaneously administered to a mouse from the sole of the hindlimb, and after 24 hours, mouse popliteal lymph nodes were harvested. The harvested mouse popliteal lymph nodes were crushed, and the absorbance of the extract from the crushed lymph nodes was measured. The accumulation rate was calculated based on the following expression:
Accumulation rate=[(absorbance of the extracted mouse popliteal lymph nodes)/(absorbance of the sample in an amount equivalent to the administered amount)]×100.
The accumulation ratios, to SLN, of the photoacoustic imaging contrast agents prepared in Examples B1 to B6 and reagents prepared in Comparative Examples B1 and B2 were calculated according to the above-described evaluation examples for accumulation in SLN. In Table B1, the accumulation ratio means an accumulation rate of each photoacoustic imaging contrast agent or the ICG-albumin complex when the accumulation rate of the ICG aqueous solution used in Comparative Example B1 is assumed as 1.

With `CC1(C)C(/C=C/C=C/C=C/C=C2/N(CCCCS(=O)(=O)[O-])c3ccc4ccccc4c3C2(C)C)=[N+](CCCCS(=O)(=O)[O-])c2ccc3ccccc3c21.[Na+]` [ICG, indocyanine green], the Accumulation ratio (accumulation rate relative to ICG aqueous solution = 1, 10 μL subcutaneous, sole of hindlimb, 24 hours, absorbance at 790 or 800 nm) worked out at 1. Under “mouse, in vivo”, the “Accumulation in SLN (in words)” value is on record as “low”.
